Consider three molecules from article PMC7762994 (Viruses, 2020).

Data set [1] has as its system Hazara virus (HAZV). In words: microbe, parasite or virus in culture. Format: cell-based.
Another data set relates to EBOV. Format: cell-based, Sudan Ebolavirus. Particulars: Vero cells, MOI 0.5, 10 µM, 48 h.
Another data set concerns CoV 229E. As to the kind of experiment: CoV 229E titer in Huh7 cells, end-point dilution assay. Format: cell-based, Coronavirus 229E. As to conditions: MOI 5, 10 µM, 24 h.
The subject of another data set is Huh7 cells. In words: Cell viability, resazurin assay. Particulars: Huh7 cells, 24, 48 or 72 h. Format: cell-based.
The next data set relates to SARS-CoV-2. Format: cell-based.
The subject of data set [2] is Hazara virus (HAZV). As to the kind of experiment: microbe, parasite or virus in culture. The format is cell-based. Particulars: SW13, 24 h; for inhibition at 10 µM: read-out: Viral inhibition on primary infection (%).
The nature of data set [3]: Viability of SW13 cells by nuclei count in the HAZV antiviral assay. The format is cell-based. As to conditions: human, SW13 cells inoculated with HAZV; SW13 cells, nuclei count relative to DMSO, 10 μM, 24 h.
A further data set relates to SW13 cells. The data set is described as above. The format is cell-based. Particulars: Homo sapiens.
The next data set relates to CCHFV. The format is cell-based, Crimean-Congo hemorrhagic fever virus. Particulars: Vero cells, MOI 1, 10 µM, 48 h.
In a further data set the target is OGG1 (Homo sapiens, UniProt O15527). As to the kind of experiment: In vitro OGG1 activity assay. Format: biochemical. Particulars: for OGG1 activity (in words): Figure 3A.
Chain of OGG1 (O15527 whole entry): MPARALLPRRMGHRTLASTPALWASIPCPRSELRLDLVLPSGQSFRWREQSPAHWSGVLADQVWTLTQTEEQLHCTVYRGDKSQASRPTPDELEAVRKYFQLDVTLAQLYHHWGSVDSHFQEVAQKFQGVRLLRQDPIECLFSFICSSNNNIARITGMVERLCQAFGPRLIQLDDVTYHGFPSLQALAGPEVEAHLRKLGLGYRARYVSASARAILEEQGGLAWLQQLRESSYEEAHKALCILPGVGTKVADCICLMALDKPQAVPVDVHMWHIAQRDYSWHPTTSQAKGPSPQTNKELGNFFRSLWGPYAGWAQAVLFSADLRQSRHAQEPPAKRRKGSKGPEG
Another data set concerns Vero cells. In words: Cell viability, MTT assay. The format is cell-based. As to conditions: 48 h.

Molecules are shown by their SMILES. Like-named read-outs stand apart in the source and are kept apart here.

For `NC(=O)c1ncn([C@@H]2O[C@H](CO)[C@@H](O)[C@H]2O)n1` [Ribavirin, reference compound], the “reduction of HAZV viral titer” value with Hazara virus (HAZV) [1] (100 µM, positive control) was 98%.
For `O=C(Nc1ccc(I)cc1)N1CCC(n2c(=O)[nH]c3cc(Cl)ccc32)CC1` [TH3289], the “reduction of EBOV viral titer” value in the data set on EBOV is 40%. For the same molecule, the “reduction of CoV 229E titer” value in the data set with CoV 229E was 84%. In addition, the “toxicity profile, cellular viability by resazurin assay” value in the data set with Huh7 cells is on record as “favourable toxicity profile”. In the data set with SARS-CoV-2, the “reduction of SARS-CoV-2 titer” value is 58%. In addition, the IC50 in the data set on Hazara virus (HAZV) [2] (read-out: Antiviral on primary infection IC50 [µM]) is 18.7 µM; in the data set on Hazara virus (HAZV) [1] (Hazara virus, SW13, 24 h, read-out: Antiviral on titer (µM) IC50 [µM]) it was 14.7 µM. Further, the EC50 in the data set with Hazara virus (HAZV) [2] (read-out: EC50 Infected cells (primary infection)) turned out to be 18.7 µM; with SW13 cells (SW13, 24 h, read-out: EC50 Living cells), 46.5 µM; in the data set on SW13 cells (HAZV, SW13, MOI 1, 24 h, read-out: Viability (nuclei count) EC50) it was 47.5 µM; with Hazara virus (HAZV) [1] (Hazara virus, SW13, read-out: EC50 Viral titer), 14.7 µM. For the same molecule, the inhibition at 10 µM in the data set on Hazara virus (HAZV) [2] was 58%; in the data set on Hazara virus (HAZV) [1] (Hazara virus, Vero, 24 h, read-out: Viral inhibition on titer (%)), 95%. The molecule also showed a viability at 24 h, 10 µM in data set [3] of 77%. Besides, in the data set on Hazara virus (HAZV) [1] (SW13 cells, MOI 1, 10 µM, 24 h), the “reduction of HAZV titer” value is reported as 94%. Besides, the “reduction of CCHFV viral titer” value in the data set with CCHFV worked out at 70%. Further, the “OGG1 activity (in words)” value at OGG1 is “Micromolar OGG1activity”. For the same molecule, the “toxicity profile, viability by MTT assay” value in the data set with Vero cells is listed as “favourable toxicity profile”.
Consider `O=C(Nc1ccc(I)cc1)N1CCC(c2c[nH]c3ccccc23)CC1` [TH4448, 4‐(1H‐indol‐3‐yl)‐N‐(4‐iodophenyl)piperidine‐1‐carboxamide], for which the inhibition at 10 µM with Hazara virus (HAZV) [2] is 98%. The molecule further yielded a viability at 24 h, 10 µM in [3] of 82%. Further, on OGG1, the IC50 is more than 99 µM and the “OGG1 activity (in words)” value is recorded as “No OGG1 activity”.
